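Results reflect a 48-hour exposure of cells in 96-well plates to compound at five concentrations. GI50 marks 50% less growth.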 Activity calls are given as the source filed them. No stated cut-off is given here; in the data, active = GI50 up to about 1.1 µM and inactive = higher.
How the values were obtained:
Experiment in all cases: growth of human tumour cells (NCI), 48 h
SK-MEL-5 = tested on: SK-MEL-5
SF-295 = tested on: SF-295
UACC-257 = tested on: UACC-257
SF-539 = tested on: SF-539
M14 = tested on: M14
DU-145 = tested on: DU-145
COLO 205 = tested on: COLO 205
T47D = tested on: T47D
HT-29 = tested on: HT-29
UO-31 = tested on: UO-31
MOLT-4 = tested on: MOLT-4
SK-MEL-2 = tested on: SK-MEL-2
CCRF-CEM = tested on: CCRF-CEM
SR = tested on: SR
SF-268 = tested on: SF-268
K562 = tested on: K562
CAKI-1 = tested on: CAKI-1
PC-3 = tested on: PC-3
A549 = tested on: A549
TK-10 = tested on: TK-10
NCI/ADR-RES = tested on: NCI/ADR-RES
EKVX = tested on: EKVX
A498 = tested on: A498
NCI-H460 = tested on: NCI-H460
SNB-75 = tested on: SNB-75
UACC-62 = tested on: UACC-62
HOP-92 = tested on: HOP-92
MDA-MB-435 = tested on: MDA-MB-435
Hs-578T = tested on: Hs-578T
NCI-H522 = tested on: NCI-H522
MCF7 = tested on: MCF7
SK-OV-3 = tested on: SK-OV-3
MDA-MB-231 = tested on: MDA-MB-231
OVCAR-3 = tested on: OVCAR-3
ACHN = tested on: ACHN
HL-60 = tested on: HL-60
HCT-15 = tested on: HCT-15
OVCAR-8 = tested on: OVCAR-8
NCI-H226 = tested on: NCI-H226
OVCAR-5 = tested on: OVCAR-5
BT-549 = tested on: BT-549
HCT-116 = tested on: HCT-116
SK-MEL-28 = tested on: SK-MEL-28
HOP-62 = tested on: HOP-62
OVCAR-4 = tested on: OVCAR-4
RXF 393 = tested on: RXF 393
MDA-N = tested on: MDA-N
786-0 = tested on: 786-0
IGROV-1 = tested on: IGROV-1
SNB-19 = tested on: SNB-19
SN12C = tested on: SN12C
RPMI-8226 = tested on: RPMI-8226
U-251 = tested on: U-251
SW-620 = tested on: SW-620
LOX IMVI = tested on: LOX IMVI
NCI-H23 = tested on: NCI-H23
HCC 2998 = tested on: HCC 2998
KM12 = tested on: KM12
Malme-3M = tested on: Malme-3M

For `O=C(NO)c1ccc(OCc2ccccc2)cc1`, the GI50 (SK-MEL-5) was 45.6 µM (inactive), the GI50 (SF-295) was 26.2 µM (inactive) and the GI50 (UACC-257) was 29.4 µM (inactive). The GI50 (SF-539) was 28.7 µM (inactive), the GI50 (M14) was 47.6 µM (inactive) and the GI50 (DU-145) was 14.3 µM (inactive). The GI50 (COLO 205) was 22.8 µM (inactive), the GI50 (T47D) was 11.5 µM (inactive) and the GI50 (HT-29) was 29.2 µM (inactive). For the same compound, the GI50 (UO-31) was 22.2 µM (inactive), the GI50 (MOLT-4) was 15.3 µM (inactive) and the GI50 (SK-MEL-2) was 30.3 µM (inactive). The GI50 (CCRF-CEM) was 6.89 µM (inactive), the GI50 (SR) was 14.1 µM (inactive) and the GI50 (SF-268) was 39.7 µM (inactive). For the same compound, the GI50 (K562) was 37.7 µM (inactive), the GI50 (CAKI-1) was 18.1 µM (inactive) and the GI50 (PC-3) was 23.3 µM (inactive). The GI50 (A549) was 33 µM (inactive), the GI50 (TK-10) was 23.7 µM (inactive) and the GI50 (NCI/ADR-RES) was 4 µM (inactive). The GI50 (EKVX) was 20.7 µM (inactive), the GI50 (A498) was 16.3 µM (inactive) and the GI50 (NCI-H460) was 19.5 µM (inactive). For the same compound, the GI50 (SNB-75) was 29.4 µM (inactive), the GI50 (UACC-62) was 14.9 µM (inactive) and the GI50 (HOP-92) was 33.5 µM (inactive). The GI50 (MDA-MB-435) was 29.2 µM (inactive), the GI50 (Hs-578T) was 65.3 µM (inactive) and the GI50 (NCI-H522) was 9.62 µM (inactive). The GI50 (MCF7) was 55.8 µM (inactive), the GI50 (SK-OV-3) was 37.2 µM (inactive) and the GI50 (MDA-MB-231) was 26.8 µM (inactive). The GI50 (OVCAR-3) was 9.95 µM (inactive), the GI50 (ACHN) was 22.3 µM (inactive) and the GI50 (HL-60) was 16 µM (inactive). The GI50 (HCT-15) was 15 µM, the GI50 (OVCAR-8) was 6.71 µM (inactive) and the GI50 (NCI-H226) was > 100 µM (inactive). The GI50 (OVCAR-5) was 27.4 µM (inactive), the GI50 (BT-549) was 26.5 µM (inactive) and the GI50 (HCT-116) was 12.1 µM (inactive). For the same compound, the GI50 (SK-MEL-28) was 28.1 µM (inactive), the GI50 (HOP-62) was 35.1 µM (inactive) and the GI50 (OVCAR-4) was 15 µM (inactive). For the same compound, the GI50 (RXF 393) was 26.7 µM (inactive), the GI50 (MDA-N) was 25.9 µM (inactive) and the GI50 (786-0) was 16.9 µM (inactive). The GI50 (IGROV-1) was 14.3 µM (inactive), the GI50 (SNB-19) was 33.3 µM (inactive) and the GI50 (SN12C) was 43.4 µM (inactive). For the same compound, the GI50 (RPMI-8226) was 12 µM (inactive), the GI50 (U-251) was 27.5 µM (inactive) and the GI50 (SW-620) was 24.5 µM (inactive). The GI50 (LOX IMVI) was 19.1 µM (inactive), the GI50 (NCI-H23) was 14.1 µM (inactive) and the GI50 (HCC 2998) was 22.6 µM (inactive). The GI50 (KM12) was 25.5 µM (inactive).
`Fc1ccc2c(c1)nc1n2C(c2c(Cl)cccc2Cl)SC1` (configuration not stated) was tested, and the GI50 (SK-MEL-5) was 8.71 µM (inactive), the GI50 (SF-295) was 13.7 µM (inactive) and the GI50 (UACC-257) was 13.5 µM (inactive). For the same compound, the GI50 (SF-539) was 18.1 µM (inactive), the GI50 (M14) was 16.4 µM (inactive) and the GI50 (DU-145) was 16.4 µM (inactive). The GI50 (COLO 205) was 16.7 µM (inactive), the GI50 (T47D) was 14.2 µM (inactive) and the GI50 (HT-29) was 16 µM (inactive). The GI50 (UO-31) was 15.4 µM (inactive), the GI50 (MOLT-4) was 8.02 µM (inactive) and the GI50 (SK-MEL-2) was 15 µM (inactive). The GI50 (SR) was 3.94 µM (inactive), the GI50 (SF-268) was 15.8 µM (inactive) and the GI50 (CAKI-1) was 12.3 µM (inactive). For the same compound, the GI50 (PC-3) was 14.7 µM (inactive), the GI50 (A549) was 14.9 µM (inactive) and the GI50 (TK-10) was 17.5 µM (inactive). The GI50 (NCI/ADR-RES) was 13.4 µM (inactive), the GI50 (A498) was 20.9 µM (inactive) and the GI50 (NCI-H460) was 8.17 µM (inactive). For the same compound, the GI50 (SNB-75) was 13 µM (inactive), the GI50 (UACC-62) was 11.8 µM (inactive) and the GI50 (HOP-92) was 6.87 µM (inactive). For the same compound, the GI50 (MDA-MB-435) was 11.4 µM (inactive), the GI50 (Hs-578T) was 18.3 µM (inactive) and the GI50 (NCI-H522) was 14.7 µM (inactive). The GI50 (MCF7) was 15.1 µM (inactive), the GI50 (SK-OV-3) was 14.8 µM (inactive) and the GI50 (MDA-MB-231) was 15.3 µM (inactive). For the same compound, the GI50 (OVCAR-3) was 12.9 µM (inactive), the GI50 (ACHN) was 16.9 µM (inactive) and the GI50 (HL-60) was 12.3 µM (inactive). The GI50 (Malme-3M) was 13 µM (inactive), the GI50 (HCT-15) was 11.7 µM and the GI50 (OVCAR-8) was 15.6 µM (inactive). For the same compound, the GI50 (NCI-H226) was 17.3 µM (inactive), the GI50 (OVCAR-5) was 15.5 µM (inactive) and the GI50 (BT-549) was 16.7 µM (inactive). The GI50 (HCT-116) was 6.41 µM (inactive), the GI50 (SK-MEL-28) was 10.8 µM (inactive) and the GI50 (HOP-62) was 14.4 µM (inactive). For the same compound, the GI50 (OVCAR-4) was 15 µM (inactive), the GI50 (RXF 393) was 17.3 µM (inactive) and the GI50 (MDA-N) was 12.1 µM (inactive). The GI50 (786-0) was 16 µM (inactive), the GI50 (IGROV-1) was 14.1 µM (inactive) and the GI50 (SNB-19) was 14.1 µM (inactive). For the same compound, the GI50 (SN12C) was 17.3 µM (inactive), the GI50 (RPMI-8226) was 13.4 µM (inactive) and the GI50 (U-251) was 13.1 µM (inactive). For the same compound, the GI50 (SW-620) was 13.2 µM (inactive), the GI50 (LOX IMVI) was 15 µM (inactive) and the GI50 (NCI-H23) was 13.1 µM (inactive). For the same compound, the GI50 (HCC 2998) was 15.7 µM (inactive) and the GI50 (KM12) was 12 µM (inactive).
With `CN(N=O)C(=O)NNC(=O)N(C)N=O` the GI50 (SK-MEL-5) was 67.6 µM (inactive), the GI50 (SF-295) was 94.6 µM (inactive) and the GI50 (UACC-257) was > 100 µM (inactive). The GI50 (SF-539) was 49.1 µM (inactive), the GI50 (M14) was 93.5 µM (inactive) and the GI50 (DU-145) was > 100 µM (inactive). The GI50 (COLO 205) was 50.1 µM (inactive), the GI50 (T47D) was 79.1 µM (inactive) and the GI50 (HT-29) was > 100 µM (inactive). The GI50 (UO-31) was 83.9 µM (inactive), the GI50 (MOLT-4) was 35.2 µM (inactive) and the GI50 (SK-MEL-2) was 73.3 µM (inactive). For the same compound, the GI50 (CCRF-CEM) was 31.7 µM (inactive), the GI50 (SR) was 8.81 µM (inactive) and the GI50 (SF-268) was 38.9 µM (inactive). For the same compound, the GI50 (K562) was 66.1 µM (inactive), the GI50 (CAKI-1) was > 100 µM (inactive) and the GI50 (PC-3) was 90.6 µM (inactive). The GI50 (A549) was > 100 µM (inactive), the GI50 (TK-10) was > 100 µM (inactive) and the GI50 (NCI/ADR-RES) was > 100 µM (inactive). The GI50 (EKVX) was 29.2 µM (inactive), the GI50 (A498) was > 100 µM (inactive) and the GI50 (NCI-H460) was 42.4 µM (inactive). The GI50 (SNB-75) was > 100 µM (inactive), the GI50 (UACC-62) was 92.5 µM (inactive) and the GI50 (HOP-92) was 47.1 µM (inactive). The GI50 (MDA-MB-435) was > 100 µM (inactive), the GI50 (Hs-578T) was > 100 µM (inactive) and the GI50 (NCI-H522) was 27 µM (inactive). For the same compound, the GI50 (MCF7) was 35.6 µM (inactive), the GI50 (SK-OV-3) was > 100 µM (inactive) and the GI50 (MDA-MB-231) was > 100 µM (inactive). For the same compound, the GI50 (OVCAR-3) was > 100 µM (inactive), the GI50 (ACHN) was > 100 µM (inactive) and the GI50 (HL-60) was 31.6 µM (inactive). The GI50 (HCT-15) was 37.9 µM, the GI50 (OVCAR-8) was 55.3 µM (inactive) and the GI50 (NCI-H226) was > 100 µM (inactive). The GI50 (OVCAR-5) was > 100 µM (inactive), the GI50 (BT-549) was 91.8 µM (inactive) and the GI50 (HCT-116) was 74 µM (inactive). The GI50 (SK-MEL-28) was > 100 µM (inactive), the GI50 (HOP-62) was > 100 µM (inactive) and the GI50 (OVCAR-4) was > 100 µM (inactive). For the same compound, the GI50 (RXF 393) was 26.8 µM (inactive), the GI50 (MDA-N) was > 100 µM (inactive) and the GI50 (786-0) was 48.3 µM (inactive). The GI50 (IGROV-1) was 65.8 µM (inactive), the GI50 (SNB-19) was > 100 µM (inactive) and the GI50 (SN12C) was > 100 µM (inactive). The GI50 (RPMI-8226) was 32.7 µM (inactive), the GI50 (U-251) was 52.5 µM (inactive) and the GI50 (SW-620) was 36.2 µM (inactive). For the same compound, the GI50 (LOX IMVI) was 44.4 µM (inactive), the GI50 (NCI-H23) was 71.8 µM (inactive) and the GI50 (HCC 2998) was > 100 µM (inactive). For the same compound, the GI50 (KM12) was > 100 µM (inactive).
